From patent publication US10208288B2, “Differentiation of human embryonic stem cells into pancreatic endocrine cells” (Janssen Biotech, Inc., priority 2012, dated 2019)

Tested on: cells of the human embryonic stem cell line H1 differentiated to stage 6
Assay: Immunostaining for NKX2.2 in stage 6 cultures
Format: cell-based
Conditions: 10 μM at stage 6, immunostaining; in control cultures NKX2.2+ cells distributed uniformly
Description: Cells of the human embryonic stem cell line H1 (hESC H1, passage 40) were seeded as single cells at 1×10^5 cells/cm^2 on MATRIGEL™ (1:30 dilution; BD Biosciences, NJ) coated dishes in mTeSR®1 media (StemCell Technologies, Vancouver, Canada) supplemented with 10 μM of Y27632. Forty-eight hours post seeding, cultures were washed in incomplete PBS (phosphate buffered saline without Mg or Ca). Cultures were differentiated into pancreatic endoderm/endocrine lineages as follows: • a) Stage 1 (Definitive Endoderm (DE)—3 days): Cells were cultured for one day in stage 1 media (see Example 1, above). Cells were then cultured for an additional day in MCDB-131 medium supplemented with 0.1% fatty acid-free BSA, 0.0012 g/ml sodium bicarbonate, 1× GlutaMax™, 4.5 mM D-Glucose, 100 ng/ml GDF8, and 0.1 μM MCX compound. […]

## CCCCCCCCCCCCC/C=C/[C@@H](O)[C@@H](N)COP(=O)(O)O [S1P, sphingosine-1-phosphate]
  NKX2.2+ cells in endocrine clusters: enriched for NKX2.2+ cells
